Consider twelve molecules from patent US20220185811A1, “FGFR4 KINASE INHIBITOR AND PREPARATION METHOD THEREFOR AND USE THEREOF” (SHOUYAO HOLDINGS (BEIJING) CO., LTD., priority 2019, published 2022).

Where a name gives a salt, the structure may show the parent alone. Read-outs that look alike come from different tables or passages of the source.

For assay [1], the system named is Human hepatoma cells Hep3b. The experiment in a line: Cell proliferation inhibition, Cell Titer-Glo. It is filed as cell-based. As to conditions: 72 h. Here is the method: 2. Determination of cell proliferation activity of compounds:
Cell Titer-Glo ® detection reagent from Promega was used to establish the suspension cell proliferation inhibition screening method. Human hepatoma cells Hep3b (Xiehe Cell Research Center) were cultured in 25 cm^2 or 75 cm^2 plastic tissue culture flasks (Corning®) filled with MEM (Gibco®) medium supplemented with 10% fetal bovine serum (Hyclone®) under 37° C., 95% air and 5% CO2, and subcultured 2-3 times a week.
(§1) Hep3b cells were seeded in a 96-well cell culture plate (Corning®) at a density of 3×10^3 cells/well, […], and cultured under 37° C., 95% air, and 5% CO2. After 24 h the test compound was added: 10 mM compounds (dissolved in DMSO) were subjected to 3-fold gradient dilution in DMSO , […] of diluent from each concentration was added to […] of serum-free medium, and finally […] of compound diluted in the medium was added to the plate seeded with cells. The final concentration of DMSO in the cell culture medium was 0.1% and the final concentration of the test compound was 0.3 nM-[…]. The above cells were incubated for 3 days under 37° C.
After 3 days, the cell viability assay was performed by the Cell Titer-Glo (Promega) kit, and finally, the inhibitory concentration 50% of the compound on cell proliferation, i.e. the IC 50 value, was calculated by the GraphPad Prism 5.0 program.
as §1, with “DMSO,” for “DMSO ,”, “finally,” for “finally”, “of” for “of the”
After 3 days, the cell viability assay was performed by the Cell Titer-Glo (Promega) kit, and finally the inhibitory concentration 50% of the compound on cell proliferation, i.e. the IC 50 value, was calculated by the GraphPad Prism 5.0 program.

Another assay deals with FGFR-4 kinase (Homo sapiens, UniProt P22455). The experiment in a line: FGFR-4 kinase activity, homogeneous time-resolved fluorescence (HTRF) method. The settings on record: ATP 25 μM, FGFR-4 kinase 1 nM, read-out: FGFR4 IC50. It is filed as biochemical. Here is the method: 1. In vitro determination of the protein activity of compounds: The FGFR-4 kinase activity detection platform was established by the homogeneous time-resolved fluorescence (HTRF) method, and the activity of the compound was determined. 1000 μM compounds were subjected to 3-fold gradient dilution in 100% DMSO 11 times (12 concentrations in total), 4 μL diluent from each concentration was added to 96 μL of reaction buffer (50 mM HEPES, pH 7.4, 5 mM MnCl2, 0.1 mM NaVO3, 0.001% Tween-20, 0.01% BAS, 1 mM DTT) and mixed well, as a 4* compound (final concentration of 0.017 nM-1000 nM) for later use. 2 * FGFR-4 kinase (final concentration of 1 nM) was formulated using reaction buffer and 4*substrate (ATP+TK peptide) (TK peptide, HTRF® KinEASETM-TK, purchased from Cisbio, TK peptide, final concentration of 1 μM, ATP final concentration of 25 μ M) was formulated using reaction buffer. 2.5 μL of 4*compound and then 5 μL of 2 * FGFR-4 kinase were added to a 384-well plate (OptiPlate-384, purchased from PerkinElmer), the mixture was mixed by centrifugation, and 2.5 μL of 4 * substrate mixture was added to start the reaction (total reaction volume of 10 µL). The 384-well plate was placed in an incubator 23° C. and stirred for 60 min before the reaction was stopped by the addition of 5 μL of Eu^3+cryptate-labeled anti-phosphotyrosine antibody (TRF® KinEASE™-TK, purchased from Cisbio) and 5 μL of Streptavidin-XL-665 (HTRF® KinEASE™-TK, purchased from Cisbio). After incubation in the incubator for 1 h, fluorescence values (excitation at 320 nm, detecting emitted light at 665 nm and 620 nm, and a ratio of the two as enzyme activity) were read on Envision (purchased from PerkinElmer). The enzyme activity of each compound was measured at 12 concentrations, and the ICso value of the compound was calculated using GraphPad Prism 5.0 software.
FGFR-4 kinase, sequence (P22455 22-802): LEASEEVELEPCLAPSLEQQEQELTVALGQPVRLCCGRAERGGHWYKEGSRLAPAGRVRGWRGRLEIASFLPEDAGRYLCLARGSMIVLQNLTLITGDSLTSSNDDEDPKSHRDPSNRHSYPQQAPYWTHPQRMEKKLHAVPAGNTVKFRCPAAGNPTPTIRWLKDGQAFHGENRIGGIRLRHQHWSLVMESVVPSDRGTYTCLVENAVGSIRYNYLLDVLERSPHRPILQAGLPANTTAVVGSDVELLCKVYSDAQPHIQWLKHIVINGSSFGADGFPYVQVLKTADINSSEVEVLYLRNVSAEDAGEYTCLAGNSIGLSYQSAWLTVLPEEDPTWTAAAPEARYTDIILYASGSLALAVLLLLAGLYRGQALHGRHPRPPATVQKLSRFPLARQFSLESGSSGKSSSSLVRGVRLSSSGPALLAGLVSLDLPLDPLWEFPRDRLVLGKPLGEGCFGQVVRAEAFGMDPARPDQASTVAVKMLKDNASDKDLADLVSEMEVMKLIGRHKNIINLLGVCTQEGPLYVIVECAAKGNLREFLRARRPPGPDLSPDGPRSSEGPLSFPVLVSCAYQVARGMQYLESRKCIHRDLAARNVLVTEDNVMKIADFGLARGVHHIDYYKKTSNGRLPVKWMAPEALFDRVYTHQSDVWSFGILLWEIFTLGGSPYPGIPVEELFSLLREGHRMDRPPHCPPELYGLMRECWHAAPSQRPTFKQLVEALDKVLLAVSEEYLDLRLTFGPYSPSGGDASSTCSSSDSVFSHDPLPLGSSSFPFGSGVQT
The FGFR-4 kinase activity detection platform was established by homogeneous time-resolved fluorescence (HTRF) method, and the activity of compound was determined. 1000 μM compounds were subjected to 3-fold gradient dilution in 100% DMSO 11 times (12 concentrations in total), 4 μL of diluent from each concentration was added to 96 μL of reaction buffer (50 mM HEPES, pH 7.4, 5 mM MnCl2, 0.1 mM NaVO3, 0.001% Tween-20, 0.01% BAS, 1 mM DTT) and mixed well, as a 4* compound (final concentration of 0.017 nM-1000 nM) for later use. 2 * FGFR-4 kinase (final concentration of 1 nM) was formulated using reaction buffer and 4*substrate (ATP+TK peptide)(TK peptide, HTRF® KinEASE™-TK, purchased from Cisbio, TK peptide, final concentration of 1 μM, ATP final concentration of 25 μM) was formulated using reaction buffer. 2.5 μL of 4 * compound and then 5 μL of 2 * FGFR-4 kinase were added to a 384-well plate (OptiPlate-384, purchased from PerkinElmer), the mixture was mixed by centrifugation, and 2.5 μL of 4 * substrate mixture was added to start the reaction (total reaction volume of 10 μL). The 384-well plate was placed in an incubator 23° C. and stirred for 60 min before the reaction was stopped by the addition of 5 μL of Eu^3+cryptate-labled anti-phosphotyrosine antibody (TRF® KinEASE™-TK, purchased from Cisbio) and 5 μL of Streptavidin-XL-665 (HTRF® KinEASE™-TK, purchased from Cisbio). After incubation in the incubator for 1 h, fluorescence values (excitation at 320 nm, detecting emitted light at 665 nm and 620 nm, and a ratio of the two as enzyme activity) were read on Envision (purchased from PerkinElmer). The enzyme activity of each compopund was measured at 12 concentrations, and the ICso value of the compound was calculated using GraphPad prism 5.0 software.

The mark [2] stands for this setting: Hep3B, Table 1, 3 days incubation.
Where [3] appears, read: Hep3B, Table 2, 3 days incubation.

Turning to `C=CC(=O)Nc1cc(-c2cc3c(cn2)cc(-c2c(Cl)c(OC)cc(OC)c2Cl)c2nccn23)c(OC)cc1N1CC2CCC(C1)O2` [Example 44, N-(2-(8-oxa-3-azabicyclo[3 .2.1]octan-3-yl)-5-(4-(2,6-dichloro-3,5-dimethoxyphenyl)imidazo[1,2-a][1,6]naphthyridin-8-yl)-4-methoxyphenyl)acrylamide], the 50% inhibitory concentration (IC50) was 113 nM in assay [1] (setting [2]) and 5.03 nM on FGFR-4 kinase (Table 1).

In the case of `C=CC(=O)Nc1cc(-c2cc3c(cn2)cc(-c2c(Cl)c(OC)cc(OC)c2Cl)c2nccn23)c(OC)cc1N1CCN(C)C2(CC2)C1` [Example 23, N-(5-(4-(2,6-dichloro-3,5-dimethoxyphenyl)imidazo[1,2-a][1,6]naphthyridin-8-yl)-4-methoxy-2-(4-methyl-4,7-diazaspiro[2.5]octan-7-yl)phenyl)acrylamide], the values for the IC50 (in assay [1] (setting [2]); at FGFR-4 kinase (Table 1)) were 142 nM and 3.85 nM, respectively.

In the case of `C=CC(=O)Nc1cc(-c2cc3c(cn2)cc(-c2c(Cl)c(OC)cc(OC)c2Cl)c2nccn23)c(OC)cc1N1CCOCC1` [Example 54, N-(5-(4-(2,6-dichloro-3,5-dimethoxyphenyl)imidazo[1,2-a][1,6]naphthyridin-8-yl)-4-methoxy-2-morpholinophenyl)acrylamide], the IC50 in assay [1] (Table 2, 3 days incubation) turned out to be 21.5 nM; on FGFR-4 kinase (Table 2), 0.7 nM.

On to `CC#CC(=O)Nc1cc(-c2cc3c(cn2)cc(-c2c(Cl)c(OC)cc(OC)c2Cl)c2nccn23)c(OC)cc1N1CCOCC1` [Example 29, N-(5-(4-(2,6-dichloro-3,5-dimethoxyphenyl)imidazo[1,2-a][1,6]naphthyridin-8-yl)-4-methoxy-2-morpholinophenyl)but-2-ynamide], for which the IC50 in assay [1] (setting [2]) came to 34.4 nM; at FGFR-4 kinase (Table 1), 2.17 nM.

As for `CC#CC(=O)Nc1cc(-c2cc3c(cn2)cc(-c2c(Cl)c(OC)cc(OC)c2Cl)c2nccn23)c(OC)cc1N1CCN(C)C2(CC2)C1` [Example 32, N-(5-(4-(2,6-dichloro-3,5-dimethoxyphenyl)imidazo[1,2-a][1,6]naphthyridin-8-yl)-4-methoxy-2-(4-methyl-4,7-diazaspiro[2.5]octan-7-yl)phenyl)but-2-ynamide], the values for the IC50 (in assay [1] (setting [2]); on FGFR-4 kinase (Table 1)) were 76.8 nM and 6.1 nM, respectively.

As for `C=CC(=O)Nc1cc(-c2cc3c(cn2)cc(-c2c(Cl)c(OC)cc(OC)c2Cl)c2nccn23)c(OC)cc1N1CCNC2(CC2)C1` [Example 9, N-(5-(4-(2,6-dichloro-3,5-dimethoxyphenyl)imidazo[1,2-a][1,6]naphthyridin-8-yl)-4-methoxy-2-(4,7-diazaspiro[2.5]octan-7-yl)phenyl)acrylamide trifluoroacetate], the values for the IC50 (in assay [1] (setting [2]); at FGFR-4 kinase (Table 1)) were 74.7 nM and 2.43 nM, respectively.

Turning to `C=CC(=O)Nc1cc(-c2cc3c(cn2)cc(-c2c(Cl)c(OC)cc(OC)c2Cl)c2nccn23)c(OC)cc1N1CCC(N2CCN(C)CC2)CC1` [Example 64, N-(5-(4-(2,6-dichloro-3,5-dimethoxyphenyl)imidazo[1,2-a][1,6]naphthyridin-8-yl)-4-methoxy-2-(4-(4-methylpiperazin-1-yl)piperidin-1-yl)phenyl)acrylamide], the results for the concentration for half-maximal inhibition (IC50) (in assay [1] (setting [3]); at FGFR-4 kinase (Table 2)) were 69.7 nM and 0.3 nM, respectively.

`C=CC(=O)Nc1cc(-c2cc3c(cn2)cc(-c2c(Cl)c(OC)cc(OC)c2Cl)c2nccn23)c(OC)cc1N1CCN(C(C)=O)CC1` [Example 37, N-(2-(4-acetylpiperazin-1-yl)-5-(4-(2,6-dichloro-3,5-dimethoxyphenyl)imidazo[1,2-a][1,6]naphthyridin-8-yl)-4-methoxyphenyl)acrylamide]: the concentration for half-maximal inhibition (IC50) in assay [1] (setting [2]) is 107 nM; on FGFR-4 kinase (Table 1), 2.16 nM.

Consider `C=CC(=O)Nc1cc(-c2cc3c(cn2)cc(-c2c(Cl)c(OC)cc(OC)c2Cl)c2nccn23)c(OC)cc1N1CCN(C#N)CC1` [Example 60, N-(2-(4-cyanopiperazin-1-yl)-5-(4-(2,6-dichloro-3,5-dimethoxyphenyl)imidazo[1,2-a][1,6]naphthyridin-8-yl)-4-methoxyphenyl)acrylamide], for which the IC50 in assay [1] (setting [3]) is 95.2 nM; at FGFR-4 kinase (Table 2) it was 0.9 nM.

For the molecule `C=CC(=O)Nc1cc(-c2cc3c(cn2)cc(-c2c(Cl)c(OC)cc(OC)c2Cl)c2nccn23)c(OC)cc1N1CCC2(CC1)CCN(C1CC1)CC2` [Example 19, N-(2-(9-cyclopropyl-3,9-diazaspiro[5.5]undecan-3-yl)-5-(4-(2,6-dichloro-3,5-dimethoxyphenyl)imidazo[1,2-a][1,6]naphthyridin-8-yl)-4-methoxyphenyl)acrylamide], the IC50 in assay [1] (setting [2]) is 71.7 nM; on FGFR-4 kinase (Table 1), 5.79 nM.

On to `C=CC(=O)Nc1cc(-c2cc3c(cn2)cc(-c2c(Cl)c(OC)cc(OC)c2Cl)c2nccn23)c(OC)cc1N1CC2CCC(C1)N2C(C)=O` [Example 7, N-(2-(8-acetyl-3,8-diazabicyclo[3 .2.1]octan-3-yl)-5-(4-(2,6-dichloro-3,5-dimethoxyphenyl)imidazo[1,2-a][1,6]naphthyridin-8-yl)-4-methoxyphenyl)acrylamide], for which the IC50 was 83.6 nM in assay [1] (setting [2]) and 1.74 nM on FGFR-4 kinase (Table 1).

With `CC#CC(=O)Nc1cc(-c2cc3c(cn2)cc(-c2c(Cl)c(OC)cc(OC)c2Cl)c2nccn23)c(OC)cc1N1CCS(=O)(=O)CC1` [Example 30, N-(5-(4-(2,6-dichloro-3,5-dimethoxyphenyl)imidazo[1,2-a][1,6]naphthyridin-8-yl)-2-(1,1-dioxidothiomorpholino)-4-methoxyphenyl)but-2-ynamide], the IC50 in assay [1] (setting [2]) was 46.3 nM; on FGFR-4 kinase (Table 1), 0.947 nM.
